In ChEMBL document CHEMBL1137640, “In vitro antimycobacterial spectrum of a diarylquinoline ATP synthase inhibitor” (2007):
Converted amounts (≈) assume the structure as drawn.

Experiments:
Type in all cases: functional
[1] = tested on: Mycobacterium avium; experiment: Antimicrobial activity against Mycobacterium avium 2 after 2 to 4 weeks by two fold dilution method
[2] = tested on: Mycobacterium avium; experiment: Antimicrobial activity against Mycobacterium avium 4 after 2 to 4 weeks by two fold dilution method
[3] = tested on: Mycobacterium avium; experiment: Antimicrobial activity against Mycobacterium avium 6 after 2 to 4 weeks by two fold dilution method
[4] = tested on: Mycobacterium avium; experiment: Antimicrobial activity against Mycobacterium avium 8 after 2 to 4 weeks by two fold dilution method
[5] = tested on: Mycobacterium avium; experiment: Antimicrobial activity against Mycobacterium avium 9 after 2 to 4 weeks by two fold dilution method
[6] = tested on: Mycobacterium avium; experiment: Antimicrobial activity against Mycobacterium avium 11 after 2 to 4 weeks by two fold dilution method
[7] = tested on: Mycobacterium avium; experiment: Antimicrobial activity against Mycobacterium avium 16 after 2 to 4 weeks by two fold dilution method
[8] = tested on: Mycobacterium avium; experiment: Antimicrobial activity against Mycobacterium avium 21 after 2 to 4 weeks by two fold dilution method
[9] = tested on: Mycobacterium avium; experiment: Antimicrobial activity against Mycobacterium avium 23 after 2 to 4 weeks by two fold dilution method
[10] = tested on: Mycobacterium intracellulare; experiment: Antimicrobial activity against Mycobacterium intracellular 7 after 2 to 4 weeks by two fold dilution method
[11] = tested on: Mycobacterium intracellulare; experiment: Antimicrobial activity against Mycobacterium intracellular 20 after 2 to 4 weeks by two fold dilution method
[12] = tested on: Mycobacterium intracellulare; experiment: Antimicrobial activity against Mycobacterium intracellular 14 after 2 to 4 weeks by two fold dilution method
[13] = tested on: Mycobacteroides chelonae; experiment: Antimicrobial activity against Mycobacterium chelonae after 2 to 4 weeks by two fold dilution method
[14] = tested on: Mycolicibacterium fortuitum; experiment: Antimicrobial activity against Mycobacterium fortuitum after 2 to 4 weeks by two fold dilution method
[15] = tested on: Mycolicibacterium mageritense; experiment: Antimicrobial activity against Mycobacterium mageritense after 2 to 4 weeks by two fold dilution method
[16] = tested on: Mycolicibacterium phlei; experiment: Antimicrobial activity against Mycobacterium phlei after 2 to 4 weeks by two fold dilution method
[17] = tested on: Mycolicibacterium vaccae; experiment: Antimicrobial activity against Mycobacterium vaccae after 2 to 4 weeks by two fold dilution method
[18] = tested on: Mycobacterium kansasii; experiment: Antimicrobial activity against Mycobacterium kansasii after 2 to 4 weeks by two fold dilution method
[19] = tested on: Mycobacterium malmoense; experiment: Antimicrobial activity against Mycobacterium malmoense after 2 to 4 weeks by two fold dilution method
[20] = tested on: Mycobacterium gordonae; experiment: Antimicrobial activity against Mycobacterium gordonae after 2 to 4 weeks by two fold dilution method
[21] = tested on: Mycobacterium simiae; experiment: Antimicrobial activity against Mycobacterium simiae after 2 to 4 weeks by two fold dilution method
[22] = tested on: Mycobacterium scrofulaceum; experiment: Antimicrobial activity against Mycobacterium scrofulaceum after 2 to 4 weeks by two fold dilution method
[23] = tested on: Mycolicibacter hiberniae; experiment: Antimicrobial activity against Mycobacterium hiberniae after 2 to 4 weeks by two fold dilution method
[24] = tested on: Mycobacterium interjectum; experiment: Antimicrobial activity against Mycobacterium interjectum after 2 to 4 weeks by two fold dilution method
[25] = tested on: Mycobacterium szulgai; experiment: Antimicrobial activity against Mycobacterium szulgai after 2 to 4 weeks by two fold dilution method
[26] = tested on: Mycolicibacter terrae; experiment: Antimicrobial activity against Mycobacterium terrae after 2 to 4 weeks by two fold dilution method
[27] = tested on: Mycobacterium conspicuum; experiment: Antimicrobial activity against Mycobacterium conspicuum after 2 to 4 weeks by two fold dilution method
[28] = tested on: Mycolicibacterium novocastrense; experiment: Antimicrobial activity against R207910 resistant Mycobacterium novocastrense after 2 to 4 weeks by two fold dilution method
[29] = tested on: Mycobacterium xenopi; experiment: Antimicrobial activity against Mycobacterium xenopi after 2 to 4 weeks by two fold dilution method
[30] = tested on: Mycobacterium shimoidei; experiment: Antimicrobial activity against Mycobacterium shimoidei after 2 to 4 weeks by two fold dilution method
[31] = tested on: Mycobacterium tuberculosis; experiment: Antimicrobial activity against drug-susceptible Mycobacterium tuberculosis isolate after 2 to 4 weeks by two fold dilution method
[32] = tested on: Mycobacterium avium complex sp.; experiment: Antimicrobial activity against Mycobacterium avium complex isolate after 2 to 4 weeks by two fold dilution method
[33] = tested on: Mycobacterium avium; experiment: Antimicrobial activity against Mycobacterium avium 1 after 2 to 4 weeks by two fold dilution method
[34] = Mycobacterium avium complex sp.

**Q.** What does the source list for COc1nc2ccc(Br)cc2cc1[C@@H](c1ccccc1)[C@@](O)(CCN(C)C)c1cccc2ccccc12 [BEDAQUILINE]?
**A.** MIC [1]: 0.03 µg/mL (≈ 0.054 µM); MIC [2]: 0.03 µg/mL (≈ 0.054 µM); MIC [3]: 0.13 µg/mL (≈ 0.234 µM); MIC [4]: 0.03 µg/mL (≈ 0.054 µM); MIC [5]: 0.13 µg/mL (≈ 0.234 µM); MIC [6]: 0.03 µg/mL (≈ 0.054 µM); MIC [7]: 0.06 µg/mL (≈ 0.108 µM); MIC [8]: 0.03 µg/mL (≈ 0.054 µM); MIC [9]: 0.03 µg/mL (≈ 0.054 µM); MIC [10]: 0.03 µg/mL (≈ 0.054 µM); MIC [11]: 0.03 µg/mL (≈ 0.054 µM); MIC [12]: 0.03 µg/mL (≈ 0.054 µM); MIC [13]: 0.06 µg/mL (≈ 0.108 µM); MIC [14]: 0.13 µg/mL (≈ 0.234 µM); MIC [15]: 0.03 µg/mL (≈ 0.054 µM); MIC [16]: 0.03 µg/mL (≈ 0.054 µM); MIC [17]: 0.03 µg/mL (≈ 0.054 µM); MIC [18]: 0.03 µg/mL (≈ 0.054 µM); MIC [19]: 0.5 µg/mL (≈ 0.9 µM); MIC [20]: 0.03 µg/mL (≈ 0.054 µM); MIC [21]: 0.03 µg/mL (≈ 0.054 µM); MIC [22]: 0.03 µg/mL (≈ 0.054 µM); MIC [23]: 0.03 µg/mL (≈ 0.054 µM); MIC [24]: 0.03 µg/mL (≈ 0.054 µM); MIC [25]: 0.03 µg/mL (≈ 0.054 µM); MIC [26]: 0.03 µg/mL (≈ 0.054 µM); MIC [27]: 0.13 µg/mL (≈ 0.234 µM); MIC [28]: 8 µg/mL (≈ 14.4 µM); MIC [29]: 4 µg/mL (≈ 7.2 µM); MIC [30]: 8 µg/mL (≈ 14.4 µM); MIC [31]: 0.002 µg/mL (≈ 0.0036 µM); MIC50 [31]: 0.03 µg/mL (≈ 0.054 µM); MIC90 [31]: 0.06 µg/mL (≈ 0.108 µM); MI50 [32]: 0.03 µg/mL; MIC [32, 34]: 0.03 µg/mL (≈ 0.054 µM); MIC90 [32, 34]: 0.13 µg/mL (≈ 0.234 µM); MIC [33]: 0.03 µg/mL (≈ 0.054 µM)
